Measured values as given in patent US8921268B2, “Herbicidal composition” (Sumitomo Chemical Company, Limited, priority 2012, dated 2014).

Key:
Echinochloa crus-galli = experiment: Pre-emergence soil spray pot test, herbicidal activity (Example 3); assay type: in vivo; conditions: scale 0 to 100; 2 g/ha; soil spray on day of sowing; twenty days after spray treatment; greenhouse
Experimental: (§1) Echinochloa crus-galli was sowed on a plastic pot filled with a soil. Following the sowing, on the day of the sowing, a mixed liquid of flumioxazin, isoxaflutole, and cyprosulfamide was sprayed uniformly so that the amounts of the agents might become those shown in Table 3 in a sprayed water amount of 500 L/ha. The mixed liquid of flumioxazin, isoxaflutole, and cyprosulfamide was prepared by dissolving the respective compounds in prescribed amounts separately in acetone containing 2% (w/v) of Tween 20 (surfactant, produced by Tokyo Chemical Industry Co., Ltd.), diluting the respective solutions with water and then combining them, followed by dilution with water so that the final acetone concentration of the spray liquid might be 10% by volume. After the spray treatment, the pot was carried into a greenhouse. Twenty days after the spray treatment, the herbicidal activity to Echinochloa crus-galli was evaluated.

Ipomoea hederacea = experiment: Pre-emergence soil spray pot test, herbicidal activity (Example 2); assay type: in vivo; conditions: scale 0 to 100; 20 g/ha; soil spray on day of sowing; ten days after spray treatment; greenhouse
Experimental: as §1, with “Ipomoea hederacea” for “Echinochloa crus-galli”, “2” for “3”, “Ten” for “Twenty”

Structure (SMILES): C#CCN1C(=O)COc2cc(F)c(N3C(=O)C4=C(CCCC4)C3=O)cc21 [Flumioxazin]
- Herbicidal activity Echinochloa crus-galli (Echinochloa crus-galli): 10
- Herbicidal activity Ipomoea hederacea (Ipomoea hederacea): 80
